# Test results: patent US20100166854A1, “ELECTROSPUN MATRICES FOR DELIVERY OF HYDROPHILIC AND LIPOPHILIC COMPOUNDS” (priority 2006, published 2010)
# Where a name gives a salt, the structure may show the parent alone.
# Columns and labels:
# [1] = Drug release from electrospun PLGA or PLLA fibers in Franz diffusion cells (Example 2); assay type: physicochemical; details: PBS 37° C.
# Protocol: Poly(lactide-co-glycolide) (50:50) (PLGA) or poly(L-lactide) (PLLA) was dissolved in hexafluoroisopropanol (HFIP) and gently shaken for 3 hours till the polymer was completely dissolved. To this a solution of LH or mupirocin in HFIP was slowly added without any visible precipitation and shaken. The homogeneous drug/polymer solution was then electrospun as per the following parameters on a rotating mandrel. Differential Scanning Calorimetry (DSC) was conducted on the fibers to study drug inclusion. The dried scaffolds were sectioned into uniform weight discs and placed into Franz diffusion cells (Permegear Inc., Bethlehem, Pa.) with phosphate buffered saline at 37° C. rotated at 600 rpm. Samples were withdrawn at specific times and analyzed by HPLC. An equivalent amount of fresh PBS was replaced each time.
# [2] = system: Staphylococcus aureus ATCC 25923; details: 5 μg mupirocin disc, interpretative criteria; cited from earlier work
# [3] = system: mupirocin-sensitive bacteria; details: all the strains of mupirocin-sensitive bacteria; cited from earlier work
SMILES,"LH released ([1]; within 48 hrs, PLGA 20% fibers, LH 100% w/v of polymer)","LH burst release ([1]; within the first hour, PLGA 20% fibers, LH 100% w/v of polymer)","mupirocin cumulative release ([1]; in the next 72 hours, PLLA 15% fibers, mupirocin 25% w/v of polymer)","mupirocin initial burst release ([1]; within an hour, PLLA 15% fibers, mupirocin 25% w/v of polymer)",zone diameter considered acceptable [2],MIC [3]
"CCN(CC)CC(=O)Nc1c(C)cccc1C [LH, Lidocaine hydrochloride]",92%,80%,–,–,–,–
C/C(=C\C(=O)OCCCCCCCCC(=O)O)C[C@@H]1OC[C@H](C[C@@H]2O[C@H]2[C@@H](C)[C@H](C)O)[C@@H](O)[C@H]1O [mupirocin],–,–,70 wt %,36 wt %,22 to 27 mm,0.06 to 0.5 µg/mL
